{
  "source": "patent US6417393B1",
  "about": "“Phenyl derivatives containing an acidic group, their preparation and their use as chloride channel blockers” (Neurosearch A/S, priority 1996, dated 2002)",
  "key": {"[1]": {"tested_on": "erythrocyte chloride channels", "test": "Cl- conductance (GCl) from concomitant measurements of conductive Cl- netfluxes and membrane potentials in suspensions of normal erythrocytes", "assay_type": "cell-based, Human", "settings": "suspension of normal erythrocytes; read-out: IC50-value for block of GCl", "description": "(§1) The compounds of the present invention are potent blockers of chloride channels in normal as well as sickle cell erythrocytes.\n(§2) All dose-response experiments were therefore performed by concomitant measurements of conductive netfluxes of Cl^− (JCl) and membrane potentials (Vm) in suspensions of erythrocytes (Bennekou, P. and Christophersen, P. (1986), Flux ratio of Valinomycin—Mediated K^+ Fluxes across the Human Red Cell Membrane in the presence of the Protronophore CCCP. J. Membrane Biol. 93, 221-227. ). The membrane Cl^−-conductances were calculated by the following equation (Hodgkin, A. L. and Huxley, A. F. (1952) The components of membrane conductance in the giant axon of loligo. J. Physiol. Lond. 116, 449-472): [formula]\n(§3) where F is the Faraday constant and ECl is the Nernst potential for the Cl-ion."}, "[2]": {"tested_on": "chloride channels of sickle cell erythrocytes", "test": "Cl- conductance (GCl) in oxygenated and deoxygenated homozygoteous sickle cell erythrocytes", "assay_type": "cell-based, Human", "settings": "oxygenated as well as deoxygenated homozygoteous sickle cell erythrocytes; compared with normal erythrocytes", "description": "as §1, §2, §3"}, "[3]": {"tested_on": "erythrocytes", "test": "Valinomycin induced cell volume loss (relative volume of packed cells)", "assay_type": "cell-based", "settings": "valinomycin for 5 min", "description": "Inducing a massive water and salt loss (KCI) by addition the K^+-ionophore valinomycin to the suspension for 5 min reduced the cell volume by 26%."}, "[4]": {"tested_on": "sickle erythrocytes", "test": "K+ flux from sickle erythrocytes, basal and deoxygenation induced (extracellular K+-concentration vs time)", "assay_type": "cell-based", "settings": "10 μM; oxygenated sickle erythrocytes", "description": "Deoxygenation induced permeability increases of sickle cells were estimated by measuring the extracellular K^+-concentration vs time. […] The K^+ flux from oxygenated sickle erythrocytes was 2-3 times higher than from normal erythrocytes and these fluxes was accelerated 4-8 times upon deoxygenation."}, "[5]": {"tested_on": "mice", "test": "Toxicity to mice", "assay_type": "in vivo", "settings": "up to 150 mg/kg i.p. and i.v.", "description": "N-(3-Trifluoromethylphenyl)-N′-(2-carboxyphenyl) urea was non-toxic to mice at concentrations up to 150 mg/kg i.p. and i.v."}},
  "note": "pIC50: −log10 of the molar value.",
  "data": [
    {"smiles": "O=C(Nc1cccc(C(F)(F)F)c1)Nc1ccccc1C(=O)O", "note": "[3′-Trifluoromethylphenyl-2-carboxyphenyl Urea]", "values": [
      {"measurement": "pIC50", "setting": "[1]", "value": 6.22},
      {"measurement": "block of GCl from sickle cell erythrocytes", "setting": "[2]", "value": "equipotently blocked"},
      {"measurement": "pIC50", "setting": "[3]; Erythrocyte, 5 min, read-out: IC50-value for reduction of valinomycin induced volume loss", "value": 5.92},
      {"measurement": "cell volume loss remaining in presence of compound", "setting": "[3]; volume loss without compound 26%", "value": 7, "unit": "%"},
      {"measurement": "basal K+-flux from sickle erythrocytes", "setting": "[4]", "value": "normalised"},
      {"measurement": "toxicity to mice", "setting": "[5]", "value": "non-toxic"}
    ]}
  ]
}
